27 compounds from patent US9765060B2 (Gilead Sciences, Inc., priority 2014, dated 2017) can be followed below.

PI3K isoform δ, sequence (O00329 whole entry, canonical isoform): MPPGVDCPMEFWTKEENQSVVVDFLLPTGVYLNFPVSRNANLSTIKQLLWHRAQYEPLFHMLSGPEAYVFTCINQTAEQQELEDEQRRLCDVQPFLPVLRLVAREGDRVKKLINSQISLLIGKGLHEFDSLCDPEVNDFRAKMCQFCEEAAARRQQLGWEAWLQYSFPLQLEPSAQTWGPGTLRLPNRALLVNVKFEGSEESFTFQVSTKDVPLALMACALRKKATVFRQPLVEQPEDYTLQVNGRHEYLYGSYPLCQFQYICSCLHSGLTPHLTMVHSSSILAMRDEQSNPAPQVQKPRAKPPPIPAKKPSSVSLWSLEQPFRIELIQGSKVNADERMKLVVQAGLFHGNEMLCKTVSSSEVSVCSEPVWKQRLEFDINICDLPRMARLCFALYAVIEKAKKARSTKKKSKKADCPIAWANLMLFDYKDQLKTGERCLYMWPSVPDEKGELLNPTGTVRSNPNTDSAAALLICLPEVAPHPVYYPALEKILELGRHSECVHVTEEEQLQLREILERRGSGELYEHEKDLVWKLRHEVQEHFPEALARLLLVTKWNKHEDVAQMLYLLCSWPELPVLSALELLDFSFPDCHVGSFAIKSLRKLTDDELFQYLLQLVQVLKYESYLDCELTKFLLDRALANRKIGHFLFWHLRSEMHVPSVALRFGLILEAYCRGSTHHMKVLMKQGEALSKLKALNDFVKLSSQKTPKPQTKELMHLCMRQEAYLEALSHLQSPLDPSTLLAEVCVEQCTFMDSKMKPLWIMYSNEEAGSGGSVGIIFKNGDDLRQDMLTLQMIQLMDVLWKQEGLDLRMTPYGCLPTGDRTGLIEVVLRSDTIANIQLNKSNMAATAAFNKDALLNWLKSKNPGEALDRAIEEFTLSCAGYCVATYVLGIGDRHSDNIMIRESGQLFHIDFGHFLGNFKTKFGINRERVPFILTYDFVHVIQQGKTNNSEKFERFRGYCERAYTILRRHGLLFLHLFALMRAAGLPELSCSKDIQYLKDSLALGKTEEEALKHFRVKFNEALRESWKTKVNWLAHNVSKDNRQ
PI3K isoform δ, sequence (P27986 whole entry partner, canonical isoform): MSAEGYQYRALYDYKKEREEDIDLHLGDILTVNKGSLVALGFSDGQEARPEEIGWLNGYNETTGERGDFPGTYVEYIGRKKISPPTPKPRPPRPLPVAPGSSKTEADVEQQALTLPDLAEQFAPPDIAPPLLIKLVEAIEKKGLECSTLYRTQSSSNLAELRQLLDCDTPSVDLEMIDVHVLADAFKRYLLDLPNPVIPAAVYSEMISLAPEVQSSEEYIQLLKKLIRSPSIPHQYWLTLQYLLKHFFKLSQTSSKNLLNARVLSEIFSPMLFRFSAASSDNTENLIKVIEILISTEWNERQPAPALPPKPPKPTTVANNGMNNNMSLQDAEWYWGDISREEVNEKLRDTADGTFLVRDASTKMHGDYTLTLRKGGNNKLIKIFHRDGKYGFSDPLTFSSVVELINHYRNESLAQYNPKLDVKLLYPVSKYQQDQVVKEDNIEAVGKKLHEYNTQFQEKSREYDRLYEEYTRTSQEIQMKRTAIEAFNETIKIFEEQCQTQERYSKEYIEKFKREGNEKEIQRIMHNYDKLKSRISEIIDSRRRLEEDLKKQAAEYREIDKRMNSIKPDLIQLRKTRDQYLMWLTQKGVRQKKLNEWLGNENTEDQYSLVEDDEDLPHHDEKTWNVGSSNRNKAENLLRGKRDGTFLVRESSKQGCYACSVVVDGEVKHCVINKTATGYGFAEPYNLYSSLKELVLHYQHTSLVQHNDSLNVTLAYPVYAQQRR

The first assay concerns the target PI3K isoform δ (Homo sapiens (Human), UniProt O00329). The assay can be described thus: TR-FRET assay of enzymatic activity of class I PI3K isoforms. Conditions: read-out: IC50 (nM) for PI3K isoform δ (Table 2); TR-FRET; 2× Km ATP, 2 μM PIP2; incubated for 30 minutes at 25° C. (In TR-FRET formats the signal depends on donor and acceptor labels being close together.)
Excerpt: TR-FRET monitored the formation of 3,4,5-inositol triphosphate molecule that competed with fluorescently labeled PIP3 for binding to the GRP-1 pleckstrin homology domain protein. […] Class I PI3K isoforms were expressed and purified as heterodimeric recombinant proteins. All assay reagents and buffers for the TR-FRET assay were purchased from Millipore.
For `N#Cc1c(N)nc(N)nc1N[C@H](c1nc2cccc(F)c2c(=O)n1-c1cc(F)cc(F)c1)C1CC1` [Compound 14a, (S)-2,4-diamino-6-((cyclopropyl(3-(3,5-difluorophenyl)-5-fluoro-4-oxo-3,4-dihydroquinazolin-2-yl)methyl)amino)pyrimidine-5-carbonitrile], the IC50 worked out at 19 nM.
Still for that read-out and setting: the value for `N#Cc1c(N)nc(N)nc1N[C@H](c1nc2cccc(C#N)c2c(=O)n1-c1ccccc1)C1CC1` [Compound 1a, (S)-2-(cyclopropyl((2,6-diamino-5-cyanopyrimidin-4-yl)amino)methyl)-4-oxo-3-phenyl-3,4-dihydroquinazoline-5-carbonitrile] was 5 nM; that for `CS(=O)(=O)c1cccc2nc([C@@H](Nc3nc(N)nc(N)c3C#N)C3CC3)n(-c3c(F)cccc3F)c(=O)c12` [Compound 6a, (S)-2,4-diamino-6-((cyclopropyl(3-(2,6-difluorophenyl)-5-(methylsulfonyl)-4-oxo-3,4-dihydroquinazolin-2-yl)methyl)amino)pyrimidine-5-carbonitrile] was 41 nM.

Still in this assay, the particulars now being: read-out: IC50 (nM) for PI3K isoform δ (Table 3); TR-FRET; 2× Km ATP, 2 μM PIP2; incubated for 30 minutes at 25° C.
As for `N#Cc1c(N)nc(N)nc1N1CCC[C@H]1c1nc2c(Cl)cccc2c(=O)n1-c1cc(F)cc(F)c1` [Compound 85, (S)-2,4-diamino-6-(2-(8-chloro-3-(3,5-difluorophenyl)-4-oxo-3,4-dihydroquinazolin-2-yl)pyrrolidin-1-yl)pyrimidine-5-carbonitrile], the IC50 was 10 nM.
On the same count and under the same terms, the value for `N#Cc1c(N)nc(N)nc1N1CC[C@H]1c1nc2cccc(Cl)c2c(=O)n1-c1ccccc1` [Compound 68, (S)-2,4-diamino-6-(2-(5-chloro-4-oxo-3-phenyl-3,4-dihydroquinazolin-2-yl)azetidin-1-yl)pyrimidine-5-carbonitrile] was 30 nM.
In the case of `C[C@H](Nc1nc(N)nc(Cl)c1C#N)c1nc2c(F)ccc(Cl)c2c(=O)n1-c1ccccc1` [Compound 66, (S)-2-amino-4-chloro-6-((1-(5-chloro-8-fluoro-4-oxo-3-phenyl-3,4-dihydroquinazolin-2-yl)ethyl)amino)pyrimidine-5-carbonitrile], the IC50 amounted to 0.7 nM.
For `C[C@H](Nc1nc(N)nc(N)c1C#N)c1nc2cccc(CCCC(=O)O)c2c(=O)n1-c1cc(F)cc(F)c1` [Compound 71, (S)-4-(2-(1-((2,6-diamino-5-cyanopyrimidin-4-yl)amino)ethyl)-3-(3,5-difluorophenyl)-4-oxo-3,4-dihydroquinazolin-5-yl)butanoic acid], the IC50 is 2 nM.
On the same count and under the same terms, the value for `N#Cc1c(N)nc(N)nc1N1CCC[C@H]1c1nc2cccc(CCCC(=O)O)c2c(=O)n1-c1ccccc1` [Compound 70, (S)-4-(2-(1-(2,6-diamino-5-cyanopyrimidin-4-yl)pyrrolidin-2-yl)-4-oxo-3-phenyl-3,4-dihydroquinazolin-5-yl)butanoic acid] was 3 nM.
The same measure, in the same setting: for `C[C@H](Nc1nc(N)nc(N)c1C#N)c1nc2cccc(OCCN3CCCC3)c2c(=O)n1-c1ccccc1` [Compound 24, (S)-2,4-diamino-6-((1-(4-oxo-3-phenyl-5-(2-(pyrrolidin-1-yl)ethoxy)-3,4-dihydroquinazolin-2-yl)ethyl)amino)pyrimidine-5-carbonitrile] the value was 10 nM; for `CS(=O)(=O)c1cccc2nc([C@@H]3CCCN3c3nc(N)nc(N)c3C#N)n(-c3ccccc3F)c(=O)c12` (atropisomer, axis not shown) [Compound 74, (S)-2,4-diamino-6-(2-(3-(2-fluorophenyl)-5-(methylsulfonyl)-4-oxo-3,4-dihydroquinazolin-2-yl)pyrrolidin-1-yl)pyrimidine-5-carbonitrile], 3 nM; for `N#Cc1c(N)nc(N)nc1N1C[C@@H](NC(=O)C(F)(F)F)C[C@H]1c1nc2cccc(Cl)c2c(=O)n1-c1ccccc1` [Compound 108, N-((3S,5S)-5-(5-chloro-4-oxo-3-phenyl-3,4-dihydroquinazolin-2-yl)-1-(2,6-diamino-5-cyanopyrimidin-4-yl)pyrrolidin-3-yl)-2,2,2-trifluoroacetamide], 2 nM.
As to `C[C@H](Nc1nc(N)nc(Cl)c1C#N)c1nc2cccc(Cl)c2c(=O)n1-c1cc(F)cc(F)c1` [Compound 105, (S)-2-amino-4-chloro-6-((1-(5-chloro-3-(3,5-difluorophenyl)-4-oxo-3,4-dihydroquinazolin-2-yl)ethyl)amino)pyrimidine-5-carbonitrile], the IC50 came out at 2 nM.
`N#Cc1c(N)nc(N)nc1N1CCC[C@H]1c1nc2c(Cl)ccc(Cl)c2c(=O)n1-c1cccc(S(N)(=O)=O)c1` [Compound 91, (S)-3-(5,8-dichloro-2-(1-(2,6-diamino-5-cyanopyrimidin-4-yl)pyrrolidin-2-yl)-4-oxoquinazolin-3(4H)-yl)benzenesulfonamide]: the IC50 came out at 17 nM.
Still for that read-out and setting: the value for `CS(=O)(=O)c1cccc2nc([C@@H]3CCCN3c3nc(N)nc(N)c3C#N)n(-c3c(F)cccc3F)c(=O)c12` [Compound 75, (S)-2,4-diamino-6-(2-(3-(2,6-difluorophenyl)-5-(methylsulfonyl)-4-oxo-3,4-dihydroquinazolin-2-yl)pyrrolidin-1-yl)pyrimidine-5-carbonitrile] was 1.2 nM.
Still for that read-out and setting: for `C[C@H](Nc1nc(N)nc(N)c1C#N)c1nc2cccc(S(=O)(=O)C3CCCC3)c2c(=O)n1-c1cccc(F)c1` [Compound 80, (S)-2,4-diamino-6-((1-(5-(cyclopentylsulfonyl)-3-(3-fluorophenyl)-4-oxo-3,4-dihydroquinazolin-2-yl)ethyl)amino)pyrimidine-5-carbonitrile] the value was 61 nM.
As to `Cc1ccccc1S(=O)(=O)c1cccc2nc([C@H](C)Nc3nc(N)nc(N)c3C#N)n(-c3cccc(F)c3)c(=O)c12` [Compound 81, (S)-2,4-diamino-6-((1-(3-(3-fluorophenyl)-4-oxo-5-(o-tolylsulfonyl)-3,4-dihydroquinazolin-2-yl)ethyl)amino)pyrimidine-5-carbonitrile], the IC50 was found to be 6 nM.
Take `Cc1ccc(Cl)c2c(=O)n(-c3cc(F)cc(F)c3)c([C@@H]3CCCN3c3nc(N)nc(N)c3C#N)nc12` [Compound 84, (S)-2,4-diamino-6-(2-(5-chloro-3-(3,5-difluorophenyl)-8-methyl-4-oxo-3,4-dihydroquinazolin-2-yl)pyrrolidin-1-yl)pyrimidine-5-carbonitrile]: the IC50 was determined as 4 nM.
The same measure, in the same setting: the value for `C[C@H](Nc1nc(N)nc(Cl)c1C#N)c1nc2cccc(Cl)c2c(=O)n1-c1ccccc1` [Compound 101, (S)-2-amino-4-chloro-6-((1-(5-chloro-4-oxo-3-phenyl-3,4-dihydroquinazolin-2-yl)ethyl)amino)pyrimidine-5-carbonitrile] was 1 nM; that for `C[C@H](Nc1nc(N)nc(N)c1C#N)c1nc2cccc(CCCN3CCC4(COC4)C3)c2c(=O)n1-c1ccccc1` [Compound 63, (S)-4-((1-(5-(3-(2-oxa-6-azaspiro[3.4]octan-6-yl)propyl)-4-oxo-3-phenyl-3,4-dihydroquinazolin-2-yl)ethyl)amino)-2,6-diaminopyrimidine-5-carbonitrile] was 0.8 nM; that for `C[C@H](Nc1nc(N)nc(N)c1C#N)c1nc2c(F)ccc(CCC(N)=O)c2c(=O)n1-c1cc(F)cc(F)c1` [Compound 39, (S)-3-(2-(1-((2,6-diamino-5-cyanopyrimidin-4-yl)amino)ethyl)-3-(3,5-difluorophenyl)-8-fluoro-4-oxo-3,4-dihydroquinazoline-5-yl)propanamide] was 2 nM.
Still for that read-out and setting: the value for `N#Cc1c(N)nc(N)nc1N1C[C@H](NC(=O)C(F)F)C[C@H]1c1nc2cccc(Cl)c2c(=O)n1-c1cc(F)cc(F)c1` [Compound 109, N-((3R,5S)-5-(5-chloro-3-(3,5-difluorophenyl)-4-oxo-3,4-dihydroquinazolin-2-yl)-1-(2,6-diamino-5-cyanopyrimidin-4-yl)pyrrolidin-3-yl)-2,2-difluoroacetamide] was 0.7 nM.
Still for that read-out and setting: the value for `Cc1nc(N)c(Br)c(N[C@@H](C)c2nc3cccc(Cl)c3c(=O)n2-c2cc(F)cc(F)c2)n1` [Compound 21, (S)-2-(1-((6-amino-5-bromo-2-methylpyrimidin-4-yl)amino)ethyl)-5-chloro-3-(3,5-difluorophenyl)quinazolin-4(3H)-one] was 30 nM; that for `N#Cc1c(N)nc(N)nc1N1C[C@H](NC(=O)C(F)F)C[C@H]1c1nc2cccc(F)c2c(=O)n1-c1cc(F)cc(F)c1` [Compound 111, N-((3R,5S)-1-(2,6-diamino-5-cyanopyrimidin-4-yl)-5-(3-(3,5-difluorophenyl)-5-fluoro-4-oxo-3,4-dihydroquinazolin-2-yl)pyrrolidin-3-yl)-2,2-difluoroacetamide] was 9 nM.
As for `C[C@H](Nc1nc(N)nc(N)c1C#N)c1nc2cccc(C3=CCNCC3)c2c(=O)n1-c1ccccc1` [Compound 93, (S)-2,4-diamino-6-((1-(4-oxo-3-phenyl-5-(1,2,3,6-tetrahydropyridin-4-yl)-3,4-dihydroquinazolin-2-yl)ethyl)amino)pyrimidine-5-carbonitrile], the IC50 turned out to be 17 nM.
As to `N#Cc1c(N)nc(N)nc1N[C@H](c1nc2c(F)ccc(CCCN3CCCCC3)c2c(=O)n1-c1ccccc1)C1CC1` [Compound 59, (S)-2,4-diamino-6-((cyclopropyl(8-fluoro-4-oxo-3-phenyl-5-(3-(piperidin-1-yl)propyl)-3,4-dihydroquinazolin-2-yl)methyl)amino)pyrimidine-5-carbonitrile], the IC50 came to 2 nM.
Consider `Cc1nc(N)nc(N[C@@H](C)c2nc3cccc(Cl)c3c(=O)n2-c2ccccc2)c1I` [Compound 97, (S)-2-(1-((2-amino-5-iodo-6-methylpyrimidin-4-yl)amino)ethyl)-5-chloro-3-phenylquinazolin-4(3H)-one], for which the IC50 was 0.6 nM.
Take `C[C@H](Nc1nc(N)nc(N)c1C#N)c1nc2cccc(OCCN3CCCC3=O)c2c(=O)n1-c1ccccc1` [Compound 26]: the 50% inhibitory concentration (IC50) was 21 nM.

By IC50 is commonly meant the concentration that inhibits the measured activity by half.
